What was measured:
[1] = Antibody (agglutinin) titre in serum of intact mice immunised with sheep erythrocytes; assay type: in vivo, Mäuse-Linien CBA und C57Bl6
Excerpt: Der Einfluss der beanspruchten Stoffe auf die Antitelogenese wurde auch an zwei gegensätzlich auf Hammelerythrozyte reagierenden Mäuse-Linien: CBA und C57Bl6 untersucht. Man verwendete Tiere mit einem Gewicht von 20+2 g, die einer Quarantäne innerhalb von mindestens 20 Tagen ausgesetzt wurden. […] In einer Stunde wurden die Tiere immunisiert, indem man ihnen intraperitoneal I0^8 Zellen der Hammelerythrozyte einführt..Am 7., 14. und 30. Tag tötete man die Tiere und ermittelte man den Gehalt an Agglutininen im Blutserum in an sich bekannter Weise. Die Ergebnisse wurden in Form lg2 der Antikörper-Titer ausgedrückt. Die Ergebnisse sind in der Tabelle 5 angeführt.

[2] = system: antikörperbildenden Zellen in der Milz; assay: Antibody-forming cells in the spleen of mice immunised with sheep erythrocytes; assay type: in vivo, Mäusen der CBA-Linien und C57Bl6-Linie; details: CBA and C57Bl6 mice, day 4; CDDP 8,1, DNS 6,0, compounds 13,6 mg/kg i.p.; numeric Table 6 is an image
Protocol: Es wurden Untersuchungen des Einflusses der bean - spruchten Stoffe im Vergleich zu den CDDP- und DNS-Präparaten auf die Bildung von antikörperbildenden Zellen in der Milz von zwei gegensätzlich auf die Hammelerythrozyte reagierenden Mäuse-Linien durchgeführt.
In I Stunde wurden die Tiere immunisiert, indem man ihnen intraperitoneal […] Zellen der Hammelerythrozyte einführte . Am 4. Tag ermittelte man die Anzahl der antikörperbildenden Zellen in der Milz der Tiere der Versuchs-und der Kontrollgruppe (ohne Einführung des Präparats). Der Gehalt an antikörperbildenden Zellen berechnete man auf […] Splenozyte und auf die ganze Milz. Die Ergebnisse der Untersuchungen sind in der Tagelle 6 dargestellt.

Shvetz-Erythromyelose = assay: Antineoplastic activity against transplanted Shvetz erythromyelosis in rats; assay type: in vivo, weissen rassenlosen Ratten; details: for Grad der Hemmung des Wachstums eines Tumors: i.p. 3x at 24 h intervals from day 4-6 after inoculation, dose I 17.1, II 17,1-27,3, III 27,3, CDDP 8,1, DNS 18,0 mg/kg
Excerpt: Die erfindungsgemässen Verbindung weisen antineonlastische Aktivität in Verbindung mit einer immunomudulierenden Wirkung auf. Die beanspruchten Verbindungen und das erfindungsgemässe Arzneipräparat mit antineoplastischer Wirkung wurden in Versuchen an Tieren und in Kliniken an Menschen untersucht. Untersucht wurde ihre antineoplastische Aktivität gegenüber der überimnften Shvetz-Erythromyelose Die antineoplastische Aktivität jedes der angemeldeten Stoffe bewertete man nach den Ergebnissen der Versuche, die an weissen rassenlosen Ratten mit einem Gewicht von 150 bis 200 g (in Gruppen zu je 10 Tieren) angestellt wurden. Den Tieren wurden 2.10^8 - 2.10^10 Zellen des überimpften Stammes der Shvetz-Erythromyelose subkutan in die Hüfte inokuliert. Am 4. bis 6. Tag nach der Inokulation der Tumorzellen, das heisst in der Periode der logarythmischen Phase des Wachstums eines Tumors, begann man, den Tieren die erfindungsgemässen Verbindungen einzuführen. Die angemeldeten Verbindungen wurden intraperitoneal dreimal mit einem Zeitabstand von 24 stunden in Form von wässerigen Lösungen beziehungsweise wässerigen Suspensionen eingeführt.
Antineoplastische Wirkung der erfindung sgemässen Verbindungen wurde im Vergleich zur Kontrolle (ohne Anwendung der Präparate) und im Vergleich zu den CDDP- und DNS-Präparaten untersucht.
Die antineoplastische Aktivität bewertete man nach folgenden biologischen Kenndaten: Grad der Hemmung des Wachstums eines Tumors, der Uberlebenskraft von Tieren am 10. Tag nach der Inokulation vom Tumorzellen sowie der Lebensdauer von Tieren.

[3] = CDDP in combination with Vinblastin, Bleomycin, Aktinomycin und Prednisolon; cited from earlier work
humorale Immunität = assay: Humoral immunity in tumour-bearing rats immunised with sheep erythrocytes; assay type: in vivo, Ratten der Wistar-Linie; details: treated tumour bearers, 4 days after immunisation
Excerpt: Der Einfluss auf die homorale Immunität (Antiteloge- nese)- bewertete man nach der Menge von antikörperbildenden Zellen in der Milz und nach dem Titer von Agglutininen und Hämolysinen im Blütserum.
Der Einfluss der beansprucheen Stoffe auf die humorale Immunität wurde auch im Vergleich zum CDDP und zur DNS untersucht. Dafür wurden Ratten,Tumorträger der Shvetz-Erythromyelose der Wistar-Linie eingesetzt, denen man ein Tumor subkutan in die Hüfte überimpfte. Am 4. Tag nach der Uberimpfung des Tumors begann man ihre Behandlung nach dem gleichen Schema wie auch bei der Untersuchung der zellulären Immunität. Am 8. Tag nach der Uberimpfung des Tumors führte man die Immunisierung der Tiere durch, indem man ihnen intraperitoneal Hammelerythrozyte in einer Dosis von 2.10^6 Zellen einführt. In 4. Tagen nach der Immunisierung tötete man die Tiere mittels Dekapitation unter Anwendung von Athernarkose und man ermittelte den Gehalt an antikörperbildenden Zellen in der Milz nach der Erne-Methode und die Agglutinine- und Hämolysine-Titer im periphärischen Blut mit bekanntnn Methoden.
Der Gehalt an antikörperbildenden Zellen ermittelte man, berechnet auf I0^6 Splenozyte und auf die Gesamtmasse der Milz. Dee Versuchergebnisse sind in der Tabelle 4 angeführt.

zelluläre Immunität = assay: Cellular immunity: rejection time of a skin allograft in tumour-bearing rats; assay type: in vivo, Männchenratten der Wistar-Linie; details: treated tumour bearers; i.p. 3x at 24 h; I 17,1, II 17,1, III 27,3, DNS 12,0, CDDP 8,1 mg/kg
Excerpt: Der Einfluss auf die zelluläre Immunität bewertete man nach der Zeit der Abstossung eines Allotransplantats der Haut eines Tumorträgers.
Der Einfluss der beanspruchten Stoffe auf die zelluläre Immunität wurde an Männchenratten der Wistar-Linie mit einem Gewicht von 150 bis 200 g untersucht. Den Tieren wurde ein Hautlappen mit Abmessungen 2 x 3 cm^2 von den Ratten der August-Linie in die Rückengegend transplantiert. Dann wurden denselben Tieren subkutan 2.10^8 Zellen der Shvetz-Erythromyelose in die Hüfte inokuliert. Am 4. bis 6. […] Zum Vergleich verwendete man die DNS- und CDDP-Präparate, die amn in einer Salz-lösung nach dem gleichen'Schema in Dosen von 12,0 und 8,1 mg/kg einführte. Als Kontrolle dienten intakte Tiere. Die Zeit der Abstossung des Hautlappens fixierte man nach der Änderung seiner Temperatur, Farbe und Elastizität.

[4] = Acute toxicity, intraperitoneal, rats and mice (with histology of kidney and gut); assay type: in vivo, weissen rassenlosen Ratten; weissen nichtlinearen Mäusen; details: i.p. 3x at 2 h intervals, total dose
Excerpt: Die Anzahl der krepierten Tiere in jeder Gruppe wurde alle 21 bis 48 Stunden registriert. In jeder Gruppe waren je 12 Tiere (6 Männchen und 6 Weibchen), die Versuche wurden zweimal wiederholt. Die Ergebnisse der Versuche sind in der Tabelle 2 angeführt.
Die krepierten Tiere wurden obduziert und man führte hystologische Untersuchungen der Nieren und des Darmes durch. Die Tiere, die die beanspruchten Stoffe in einer unter der toxischen Dosis liegenden Menge verabreicht bekamen, wurden in I4 Tagen getötet. Die inneren Organe derselben wurden der Autopsie ausgesetzt.

Solubility = assay type: physicochemical; details: 20°C
[5] = pH of a solution in citrate-salt solution (potentiometric); assay type: physicochemical; details: 0,015 g (II: 0,018 g) in 1000 ml Zitrat-Salz-Lösung, 20°C
Protocol: Die erfindung sgemässe Verbindung, Poly{hexakis-[Chloroammindiaquaplatin (II)]} - µ - desoxyribonukleat fol- ^gender Formel: [drawing 3] worin n = 1900±90, m = bn,- DNS = (̵C39H49O32N15P4)̵n ..., verliert bei Erhitzung innerhalb von IO Stunden bei einer Temperatur von I80 bis 200°C alle Wassermoleküle. Der Stoff lässt sich schlecht in Wasser, Methanol, Athanol auflösen, er ist nichthygroskopisch. Seine Löslichkeit in wasser bei einer Temperatur von 20°C beträgt 0,002%. Eine Lösung von 0,015 g des beanspruchten Stoffes in I000 ml einer Zitrat-Salz-Lösung (0,015 Mol NaCl + 0,0015 Mol Natriumzitrat) bei einer Temperatur von 20°C hat einen pH-Wert von 5,42 (pH- potentiometrisch).

## N.N.[Cl][Pt][Cl] [CDDP, cis-Dichlorodiaminplatin(II)]
[1]; Linie der Mäuse C57Bl6, day 7
  lg2 Antikörper-Titer: 3,80±0,24
[2]
  Gehalt an antikörperbildenden Zellen in der Milz: senken
Shvetz-Erythromyelose; day 10 after inoculation of tumour cells, same doses as E1
  Uberlebenskraft von Tieren: 80%
Shvetz-Erythromyelose
  Grad der Hemmung des Wachstums eines Tumors: 78%
[3]
  Effektivität der Behandlung einer Eierstockgeschwulst: 100%
Humorale Immunität
  Gehalt an antikörperbildenden Zellen je 10^6 Splenozyte: 20,37±2,03

## Poly {bis[hydroxochloramminaquaplatin(II)] - tetrakis[chloroammindiaquaplatin(II)] - µ - desoxyribonukleat [Verbindung II]
[1]; Linie der Mäuse C57Bl6, day 7
  lg2 Antikörper-Titer: 6,60±0,32
[1]; Linie der Mäuse CBA, day 7, single i.p. dose (compounds 13,6, CDDP 8,1, DNS 6,0 mg/kg)
  lg2 Antikörper-Titer: 7,20±0,30
[1]; Linie der Mäuse CBA, day 14
  lg2 Antikörper-Titer: 7,60±0,32
[1]; Linie der Mäuse CBA, day 30
  lg2 Antikörper-Titer: 6,40±0,42
Shvetz-Erythromyelose
  Grad der Hemmung des Wachstums eines Tumors: 94%
zelluläre Immunität
  Die Zeit der Abstossung (in Tagen) eines Hauptlappens: 6,5±0,5 Tagen
[4]; in Lösung
  LD50: 66,0 mg/kg
[4]; in Suspension
  LD50: 66,0 mg/kg
Solubility
  Löslichkeit in Wasser: 0,0075%
[5]
  pH-Wert: > 5,38

## Poly{hexakis [chlor- amminaquaplatin(II)]} - µ - desoxyribonukleat [Verbindung III]
[1]; Linie der Mäuse C57Bl6, day 14
  lg2 Antikörper-Titer: 6,68±0,29
[1]; Linie der Mäuse C57Bl6, day 30
  lg2 Antikörper-Titer: 6,32±0,24
[1]; Linie der Mäuse CBA, day 14
  lg2 Antikörper-Titer: 8,40±0,42
[1]; Linie der Mäuse CBA, day 30
  lg2 Antikörper-Titer: 8,50±0,30
Shvetz-Erythromyelose
  Grad der Hemmung des Wachstums eines Tumors: 95%
Shvetz-Erythromyelose; versus CDDP
  increase of Uberlebenskraft von Tieren compared with CDDP: 20%
zelluläre Immunität
  Die Zeit der Abstossung (in Tagen) eines Hauptlappens: 6,5±0,5 Tagen
[4]; in Suspension
  LD50: 82,5 mg/kg
[5]
  pH-Wert: 5,44

## Poly{hexakis-[Chloroammindiaquaplatin (II)]} - µ - desoxyribonukleat [Verbindung I]
[1]; Linie der Mäuse C57Bl6, day 14
  lg2 Antikörper-Titer: 6,82±0,38
Shvetz-Erythromyelose
  Grad der Hemmung des Wachstums eines Tumors: 84%
[4]; in Lösung
  LDI00: 84,0 mg/kg
[4]; in Suspension
  LDI00: 84,0 mg/kg
Solubility
  Löslichkeit in Wasser: 0,002%
[5]
  pH-Wert: 5,42
Humorale Immunität
  Gehalt an antikörperbildenden Zellen je 10^6 Splenozyte: 68,4±9,38

Source: patent EP0374267A1, “DERIVATIVES OF PLATINUM (P) WITH A POLYANION OF DEOXYRIBONUCLEIC ACID, METHOD FOR OBTAINING THEM AND PHARMACEUTICAL ANTITUMOR PREPARATION BASED ON THEM” (priority 1988, dated 1989)
